According to patent US20160361302A1, “SNS-595 AND METHODS OF USING THE SAME” (Sunesis Pharmaceuticals, Inc., priority 2004, published 2016):
Like-named read-outs stand apart in the source and are kept apart here.

Test: Pharmacokinetics of SNS-595 in cancer patients
Assay type: in vivo, human
Conditions: for AUC(0-inf): read-out: AUCINF_obs
Method: SNS-595 was administered to enrolled patients for up to six cycles. A cycle is defined as a three-week period, with SNS-595 administered on the first day of each cycle (day 0), followed by at least 21 days of observation. SNS-595 was administered to cohorts of at least 3 patients and dose escalation occurred by sequential cohort.

[1] = dose 6 mg/m2, cancer patients, plasma
[2] = dose 12 mg/m2, cancer patients, plasma
[3] = dose 24 mg/m2, cancer patients, plasma
[4] = dose 48 mg/m2, cancer patients, plasma
[5] = human, dose 12 mg/m2, cancer patients, plasma

CN[C@H]1CN(c2ccc3c(=O)c(C(=O)O)cn(-c4nccs4)c3n2)C[C@@H]1OC [SNS-595, (+)-1,4-dihydro-7-[(3S,4S)-3-methoxy-4-(methylamino)-1-pyrrolidinyl]-4-oxo-1-(2-thiazoyl)-1,8-naphthyridine-3-carboxylic acid]
Vs_obs (dose 2 mg/m2, cancer patients, plasma): 1.38 L/kg
AUClast [1]: 2408.08 ng·h/mL
CI_obs [1]: 0.71 mL/min/kg
Cmax [1]: 347.06 ng/mL
Vs_obs [1]: 1.28 L/kg
CI_obs [2]: 0.78 mL/min/kg
Vs_obs [2]: 1.17 L/kg
AUClast [3]: 11132.02 ng·h/mL
CI_obs [3]: 0.83 mL/min/kg
Cmax [3]: 2702.33 ng/mL
Vs_obs [3]: 1.18 L/kg
Cmax [4]: 2342.00 ng/mL
Vs_obs [4]: 1.37 L/kg
AUC(0-inf) (human, dose 6 mg/m2, cancer patients, plasma): 2800 ng·h/mL
AUC(0-t) [5]: ~6280 ng·h/mL
AUC(0-inf) [5]: 5230 ng·h/mL
Consistency of pharmacokinetic properties among patients (patients in the same cohort): remarkably consistent among patients in the same cohort
